The text below walks through data of patent US20250205226A1, “USE OF N-(3-(4-(3-(DIISOBUTYLAMINO)PROPYL)PIPERAZIN-1-YL)PROPYL)-1H-BENZO[D]IMIDAZOL-2-AMINE SALTS AND SOLVATES THEREOF FOR THE TREATMENT OF SENSORY NEURON DISEASES” (ALZPROTECT, priority 2022, published 2025).

Like-named read-outs stand apart in the source and are kept apart here.

For this assay, the system named is primary culture of rat sensory neurons and Schwann cells. The format is cell-based. To be noted: for Effect on SN neurite network after cisplatin injury / Effect on SN survival as compared to the cisplatin condition: 3 nM to 100 nM, with cisplatin 10 μg/mL injury; for Survival of SNs (number of MAP-2 positive SNs), mean survival / Total neurite network (MAP-2), mean length: percentage of control, 24 h. Here is the method:
Primary sensory neurons (SN) and Schwann cells (SC) were cultured as previously described in Cancer Chem. Pharmacol. 2008 November;62 (6): 995-1007. Briefly, pregnant female rats of 15 days gestation (Rats Wistar; Janvier Labs France) were killed using a deep anesthesia with CO2 chamber and a cervical dislocation. Then, fetuses were collected and immediately placed in ice-cold L15 Leibovitz medium with a 2% penicillin (10,000 U/mL) and streptomycin (10 mg/mL) solution (PS) and 1% bovine serum albumin (BSA). DRG from spinal cord were treated for 20min at 37° C. with a trypsin-EDTA solution at a final concentration of 0.05% trypsin and 0.02% EDTA. The dissociation was stopped by addition of Dulbecco's modified Eagle's medium (DMEM) with 4.5 g/L of glucose, containing DNAse I grade II (final concentration 0.5 mg/mL) and 10% fetal calf serum (FCS). Cells were mechanically dissociated through the tip of a 10 mL pipette. Cells were then centrifuged at 515× g for 10 min at 4° C. DMEM F12 with a 1% solution of N2 supplement, 2 mmol/L of L-glutamine, 2% of PS solution, NGF (5 ng/ml) and NT3 (5 ng/ml). Cells were seeded at a density of 15,000 per well in 96-well plates pre-coated with poly-L-lysine and cultured at 37° C. in an air (95%)-CO2 (5%) incubator. […] Cells were washed twice in PBS. Cell membranes were permeabilized and non-specific sites were blocked with a solution of PBS containing 0.1% of saponin and 1% FCS for 15 min at room temperature. Then, cells were incubated for 2 h with a mouse monoclonal antibody anti-microtubule associated protein 2 (MAP-2) at dilution of 1/400 in PBS containing 1% fetal calf serum and 0.1% of saponin. This antibody binds specifically MAP-2 present in cell bodies and neurites of all SNs. […] Nuclei of neurons were labeled by a fluorescent marker (Hoechst solution). For each condition, 30 pictures (representative of 90% of the well area) per well were automatically taken using ImageXpress (Molecular Devices) with 20× magnification. All images were taken under the same conditions (exposition time, gain and laser intensity). Analysis of different endpoints was automatically performed using Custom Module Editor (Molecular Devices). The endpoints were: • Survival of SNs (number of MAP-2 positive SNs) • Total neurite network (MAP-2): total length of neurites of SNs (expressed in μm) All values are expressed as mean +/−SEM. Statistical analysis was performed by one-way ANOVA, followed by PLSD Fisher test.

For “N-(3-(4-(3-(diisobutylamino)propyl)piperazin-1-yl)propyl)-^1H-benzo[d]imidazol-2-amine sesqui-succinate salt [sesqui-succinate salt Form 1]”, the “Effect on SN neurite network after cisplatin injury” value was “able to protect the neurite network from cisplatin damage”; the “Effect on SN survival as compared to the cisplatin condition” value is “positive and significant effect on survival”. Further, the “Survival of SNs (number of MAP-2 positive SNs), mean survival” value (10 nM (maximal effect) with cisplatin 10 μg/mL injury, FIG. 8A) is on record as roughly 77%. Besides, for the setting “10 nM (maximal effect) with cisplatin 10 μg/mL injury, FIG. 8B”, the “Total neurite network (MAP-2), mean length” value is listed as roughly 80%.
`CC(C)CN(CCCN1CCN(CCCNc2nc3ccccc3[nH]2)CC1)CC(C)C.O=S(=O)(O)O.O=S(=O)(O)O` [N-(3-(4-(3-(diisobutylamino)propyl)piperazin-1-yl)propyl)-1H-benzo[d]imidazol-2-amine di-sulphate]: the “Effect on SN neurite network after cisplatin injury” value was “able to improve the neurite network after cisplatin injury”; the “Effect on SN survival as compared to the cisplatin condition” value was “positive and significant effect on survival”. In addition, the “Survival of SNs (number of MAP-2 positive SNs), mean survival” value (30 nM (maximal effect) with cisplatin 10 μg/mL injury, FIG. 7A) is 80%. Besides, for the setting “30 nM (maximal effect) with cisplatin 10 μg/mL injury, FIG. 7B”, the “Total neurite network (MAP-2), mean length” value came out at 83%.
